Experiment: photocatalytic hydrogen evolution rate (per 5 mg catalyst); higher = more photocatalytic H2 evolution; extreme values may be limits of the assay
Settings: catalyst mass (mg): 5; Pt cocatalyst (wt%): 3; sacrificial medium: triethylamine/methanol/water 1:1:1
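Further: aromatic molecules in triethylamine/methanol/water with Pt photoreduced in situ, irradiated 3 h under a 1 sun AM 1.5G solar simulator (350–1000 nm), H2 quantified by headspace gas chromatography; listed molecule itself used as the photocatalyst at 5 mg per vial.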

SMILES	photocatalytic hydrogen evolution rate [µmol/h]
C1=Cc2nc1c(-c1ccccc1)c1ccc([nH]1)c(-c1ccccc1)c1nc(c(-c3ccccc3)c3ccc([nH]3)c2-c2ccccc2)C=C1	1.32
c1ccc2c(c1)C1c3ccccc3C2c2ccccc21	0.0408
FC(F)(F)c1cc(Br)ccc1Br	0
N#Cc1ccc(C=O)cc1F	0.104
COC(=O)c1cccc2cc3cccc(C(=O)OC)c3cc12	0.0378
Brc1cc(Br)c(Br)cc1Br	0
O=C(O)c1ccc(-c2ccc(-c3cc(-c4ccc(-c5ccc(C(=O)O)cc5)cc4)cc(-c4ccc(-c5ccc(C(=O)O)cc5)cc4)c3)cc2)cc1	0
c1ccc(-c2cccc(-c3ccccn3)n2)nc1	0.17
O=Cc1ccc(-c2ccccn2)cc1	5.1
O=Cc1ccc(-c2nc(-c3ccc(C=O)cc3)nc(-c3ccc(C=O)cc3)n2)cc1	0.298
OC1(c2ccccc2)c2cc(Br)ccc2-c2ccc(Br)cc21	0.101
O=Cc1ccc2c(c1)c1ccccc1n2-c1ccccc1	2.51
O=Cc1cccc(-c2c(O)ccc3ccccc23)c1	0.0122
Nc1cc(C(=O)O)ccc1C(=O)O	0.109
O=Cc1ccc(C=O)s1	0.129
N#Cc1ccc(F)c(N)c1	0
Brc1ccc2ccc3cccc4ccc1c2c34	0.369
O=Cc1ccc(C#Cc2ccccc2)cc1	1.66
Ic1ccc(I)cc1	0
Brc1c2ccccc2c(-c2c3ccccc3c(Br)c3ccccc23)c2ccccc12	1.44
c1ccc2c(c1)c1ccccc1n2-c1ccc(N(c2ccc(-n3c4ccccc4c4ccccc43)cc2)c2ccc(-n3c4ccccc4c4ccccc43)cc2)cc1	0
CN1CCN(c2ccc(C=O)cc2)CC1	0.409
N#Cc1c(F)c(F)c(C#N)c(F)c1F	8.13
C1=Cc2cccc3cccc1c23	0
O=C1c2cccc3cccc(c23)C(=O)N1O	0

SMILES	photocatalytic hydrogen evolution rate [µmol/h]
O=Cc1cc(F)c(O)c(F)c1	0.191
Nc1ccc(-c2nc(-c3ccc(N)cc3)nc(-c3ccc(N)cc3)n2)cc1	0
O=Cc1cncnc1	0.0364
COc1cc(Br)ccc1C=O	12.3
O=c1oc(=O)c2cc3c(=O)oc(=O)c3cc12	0
C#Cc1ccc(N)cc1	0
NNC(=O)COc1ccc(Br)cc1Br	0
O=Cc1ccc(O)c(O)c1O	0
Brc1ccc2c(c1)sc1cc(Br)ccc12	0
O=Cc1ccc(N(c2ccccc2)c2ccc(C=O)cc2)cc1	1.17
Brc1ccc(Br)nc1	0
c1ccc(N(c2ccccc2)c2ccccc2)cc1	0
O=Cc1c(O)cc(O)cc1O	0
CCn1c2ccccc2c2cc(C=O)ccc21	2.45
O=C1C(=O)c2cc(Br)ccc2-c2ccc(Br)cc21	0
O=C1CCC(c2ccccc2)CC1	0
N#Cc1ccc(Br)cc1	0
O=Cc1ccc(Cl)c(O)c1	0
O=Cc1ccc(-n2ccnc2)cc1	1.5
Brc1ccc(-c2ccc(-c3ccc(Br)s3)c3nsnc23)s1	0.174
N#Cc1cnc(Br)cn1	0.721
N#Cc1cc(O)cc(C#N)c1	2.14
Cc1ccc(C#N)cc1N	0
COC(=O)c1ccc2cc(Br)ccc2c1	0
N#Cc1cnccc1Br	0.0501

SMILES	photocatalytic hydrogen evolution rate [µmol/h]
Brc1c(Br)c(Br)c(Br)c(Br)c1Br	0
Brc1ccc(Br)c2nsnc12	1.29
O=C(O)c1ccc(-c2cc(-c3ccccn3)nc(-c3ccccn3)c2)cc1	0.441
CC(=O)c1c(O)cccc1O	0
O=C1N=C(c2cccs2)c2c(O)[nH]c(-c3cccs3)c21	0
N#Cc1c(F)c(F)c(F)c(C#N)c1F	0.386
Cc1cc(C=O)c(O)c(C=O)c1	7.62
N#Cc1cccnc1Br	0
N#Cc1c(O)ccc(O)c1C#N	0
c1ccc(-c2c(-c3ccccc3)c(-c3ccccc3)c(-c3ccccc3)c(-c3ccccc3)c2-c2ccccc2)cc1	0
O=Cc1ccc(-c2ccc(-c3ccc(C=O)s3)s2)s1	1.6
O=Cc1ccc(N2CCCCC2)cc1	0.431
Cc1ccc(-c2ccc(C)cc2)cc1	0
COC(=O)c1ccc(C(=O)OC)cc1	0.0838
O=C1C=CC(=O)c2cc3ccccc3cc21	0
O=Cc1ccc(-n2c3ccccc3c3ccccc32)cc1	3.93
N#Cc1cccnc1C#N	0
C=Cc1ccccc1	0
O=c1cccc[nH]1	0
N#Cc1cc(Br)c[nH]c1=O	1.99
N#Cc1cncc(C=O)c1	0.0889
N#Cc1ccc(C(=O)c2ccc(C#N)cc2)cc1	4.66
O=C1c2ccccc2C(=O)c2c(Cl)cccc21	0
O=C(O)c1ccc(-c2c3nc(c(-c4ccc(C(=O)O)cc4)c4ccc([nH]4)c(-c4ccc(C(=O)O)cc4)c4nc(c(-c5ccc(C(=O)O)cc5)c5ccc2[nH]5)C=C4)C=C3)cc1	2.56
O=Cc1ccc(-c2cccnc2)cc1	3.58

SMILES	photocatalytic hydrogen evolution rate [µmol/h]
N#Cc1cc2ccccc2cc1C#N	0.401
c1ccc(-c2cc(-c3ccccc3)nc(-c3ccccc3)c2)cc1	0
Brc1ccccc1-c1ccccc1Br	0
Brc1ccc(OCC2CCCCO2)c(Br)c1 (stereo not drawn)	0
Cc1cc(C)cc(-c2cc(C)cc(C)c2)c1	0
Oc1cc(Br)c(O)cc1Br	0
Cn1c2ccccc2c2cc(C=O)ccc21	2.49
Nc1ccc(-c2ccc(-c3ccc(N)cc3)cc2)cc1	0
Cc1cc(Br)c(C)cc1Br	0
O=Cc1cc(O)c(C=O)cc1O	0
c1ccc(-c2ccccc2)cc1	0
O=Cc1ccc(O)c(O)c1	0
O=Cc1cc(O)ccc1O	0
CC1(C)c2cc(B3OC(C)(C)C(C)(C)O3)ccc2-c2ccc(B3OC(C)(C)C(C)(C)O3)cc21	0.0142
Brc1cccc(Br)n1	0
c1ccc2c(c1)c1ccccc1c1ccccc21	0.022
COc1ccc(B(O)O)cc1	0
O=Cc1ccc(Cl)cc1	0.964
CC1(C)OB(c2ccc(B3OC(C)(C)C(C)(C)O3)cc2)OC1(C)C	0
c1ccc(C(=C(c2ccccc2)c2ccccc2)c2ccccc2)cc1	0
O=C(C(=O)c1ccc(C(=O)C(=O)c2ccccc2)cc1)c1ccccc1	0.00597
O=Cc1cc(Br)ccc1O	10.5
Nc1c(F)c(F)c(N)c(F)c1F	0
CC(C)(O)c1ccc(C(C)(C)O)cc1	0.00118
O=Cc1c(F)c(F)c(C=O)c(F)c1F	0.177

SMILES	photocatalytic hydrogen evolution rate [µmol/h]
COc1ccc(B(O)O)cc1C=O	2.76
OB(O)c1cccc(B(O)O)c1	0
Brc1ccc(Br)c2nccnc12	1.37
O=C1C=C(O)C(=O)C=C1O	0
CC(Oc1ccc(Br)cc1Br)C(=O)NN (stereo not drawn)	0
Brc1c2ccccc2c(Br)c2ccccc12	0.0125
N#Cc1ccc(C=O)cc1	0.136
COc1ccc2c3c(cccc13)C(=O)N(C)C2=O	1.91
CC(C)(C)c1ccnc(-c2cc(C(C)(C)C)ccn2)c1	0.236
O=C1c2ccccc2Cc2ccccc21	0
O=Cc1cccc(O)c1O	0
N#Cc1ccnc(C#N)c1	0
N#Cc1nc(N)c(N)nc1C#N	0
Nc1cccc2ccccc12	0
N#Cc1cccnc1-c1ncccc1C#N	0
CC1(C)OB(c2ccc(-c3cccs3)s2)OC1(C)C	0
Nc1ccc(-c2c3nc(c(-c4ccc(N)cc4)c4ccc([nH]4)c(-c4ccc(N)cc4)c4nc(c(-c5ccc(N)cc5)c5ccc2[nH]5)C=C4)C=C3)cc1	0
c1ccc(-c2nc(-c3ccccc3)nc(-c3ccccc3)n2)cc1	0.0789
O=C1c2cccc([N+](=O)[O-])c2C(=O)c2c1cccc2[N+](=O)[O-]	0
c1ccc2nsnc2c1	0
O=C(O)Cc1ccc(Br)cc1Br	0
O=Cc1ccc(O)cc1O	0.896
COc1ccc(C=O)cc1O	0
